# Where a name gives a salt, the structure may show the parent alone.
# System: MDA-MB-231 breast cancer cell line
# Method: A. MDA-MB-231 breast cancer cell line was treated with increasing doses of phenelzine sulfate (phenelzine). Immunofluorescence microscopy was performed on cells fixed and probed with primary anti-LSD1s111p and anti-H3k4me2 and DAPI. Representative images for each dataset are shown. Graph represents the TNFI values for LSD1p and H3k4me2 measured using ImageJ to select the nucleus minus background (n>20 individual cells). B. The effect of phenelzine sulfate on cell proliferation of MDA-MB-231 cells was analyzed using the WST-1 proliferation assay
smiles,measurement,value
"NNCCc1ccccc1 (racemic) [phenelzine sulfate, (±)-2-phenylethylhydrazine]","proliferation of MDA-MB-231, as measured by the WST-1 assay",inhibiting the proliferation
